The test deals with recombinant eIF4E (Homo sapiens (Human), UniProt P06730). Put plainly: Fluorescence polarization competition assay for eIF4E binding potency. A digest of the protocol:
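Competitive displacement format: compounds compete with a fluorescent m7GDP tracer (20 nM) for 75 nM recombinant eIF4E. Incubation is 30 min at room temperature, protected from light, with 1% DMSO. Polarization read gives IC50 over eight 3-fold concentrations.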

Where [1] appears, read: fluorescence polarization competition, 75 nM recombinant eIF4E, 20 nM EDA-m7GDP-ATTO-550, IC50 class, read-out: elF4E FP.
Where [2] appears, read: inhibition of eIF4E/EDA-m7GDP-ATTO-550 binding by 50%, Table 4B calculated values, read-out: IC50.
Where [3] appears, read: inhibition of eIF4E/EDA-m7GDP-ATTO-550 binding, calculated IC50 values, Table 4B, read-out: IC50.

The structures appear in SMILES notation. Where two headings read alike, the source gives them in different places.

recombinant eIF4E, sequence (P06730 whole entry): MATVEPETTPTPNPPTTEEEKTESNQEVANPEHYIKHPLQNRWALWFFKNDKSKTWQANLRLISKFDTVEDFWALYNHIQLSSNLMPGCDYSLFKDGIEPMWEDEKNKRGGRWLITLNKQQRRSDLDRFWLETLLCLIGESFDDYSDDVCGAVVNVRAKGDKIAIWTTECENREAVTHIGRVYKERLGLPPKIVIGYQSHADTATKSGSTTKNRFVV

For `Cc1cc(-c2c(Cl)cc3nc(C)n(CCOc4ccc(Cl)cc4-c4cc(C)nc5c(C(=O)O)csc45)c(=O)c3c2C#N)cc(C)n1` [compound 396], the IC50 was less than 50 nM under setting [1] and 18.1 nM under setting [2]. Take `Cc1cc(-c2cc(Cl)ccc2OCCn2c(C)nc3cnc(N4CC5CCC(C4)N5C)c(C#N)c3c2=O)c2sc(C)c(C(=O)O)c2n1` [compound 868]: the IC50 reads like this: under setting [1], less than 50 nM; under setting [2], 17.2 nM.

With `CCc1nc(C)c2nc(C)n(CCOc3ccc(Cl)cc3-c3ccnc4c(C(=O)O)csc34)c(=O)c2c1C#N` [compound 851], the IC50 was less than 50 nM under setting [1] and 6.02 nM under setting [2]. In the case of `Cc1nc2cnc(N(C)C3CCN(CC(F)(F)C4CC(F)(F)C4)CC3)c(C#N)c2c(=O)n1CC#Cc1ccc(Cl)cc1-c1ccnc2c(C(=O)O)csc12` [compound 1582], the IC50 under setting [3] was 19.2 nM. Regarding `Cc1nc2cc(C(F)(F)F)cc(C#N)c2c(=O)n1CCOc1ccc(Cl)cc1-c1cncc(-c2nn[nH]n2)c1` [compound 660], the IC50 by setting is: under setting [1], 50 to 1000 nM; under setting [2], 258 nM. Turning to `Cc1sc2c(-c3cc(Cl)ccc3OCCn3c(C)nc4c(F)cc(C(F)F)c(C#N)c4c3=O)ccnc2c1C(=O)O` [compound 123], the IC50 under setting [1] was less than 50 nM and the IC50 under setting [2] is 36.5 nM. As to `Cc1cc(-c2cc(Cl)ccc2OCCn2c(C)nc3cc(C(F)(F)F)c(N4CCN(C)CC4)cc3c2=O)c2scc(C(=O)O)c2n1` [compound 427], the IC50 is less than 50 nM under setting [1] and 25 nM under setting [2].

With `COc1cc(-c2cc(Cl)ccc2OCCn2c(C)nc3cc(C(F)(F)F)c(N4CCN(C)CC4)c(C#N)c3c2=O)cc(C(=O)O)n1` [compound 1224], the IC50 under setting [1] lay within 50 to 1000 nM. On to `Cc1cc(-c2cc(Cl)ccc2OCCn2c(C)nc3cc(C(F)(F)F)c(C(C)(C)O)nc3c2=O)c2scc(C(=O)O)c2n1` [compound 938], for which the IC50 by setting is: under setting [1], less than 50 nM; under setting [2], 2.44 nM. With `Cc1nc2cnc(SC3CCN(CC(F)(F)F)CC3)c(C#N)c2c(=O)n1CCOc1ccc(Cl)cc1-c1ccnc2c(C(=O)O)csc12` [compound 1349], under setting [3], the IC50 is 36.5 nM. On to `Cc1cc(-c2cc(Cl)ccc2OCCn2c(C)nc3ccc(CCN(C)C)c(C#N)c3c2=O)c2scc(C(=O)NS(C)(=O)=O)c2n1` [compound 1138], for which the IC50 is, setting by setting: under setting [1], less than 50 nM; under setting [2], 23.7 nM. In the case of `CCN(c1ncc2nc(C)n(CC#Cc3ccc(Cl)cc3-c3ccnc4c(C(=O)NS(=O)(=O)c5cccnc5)csc34)c(=O)c2c1C#N)C1CCN(CC(F)(F)C(F)F)CC1` [compound 1709], the IC50 under setting [3] is 28.4 nM. As for `Cc1nc2cnc(C3CCC(N(C)CC(F)(F)F)C3)c(C#N)c2c(=O)n1CCOc1ccc(Cl)cc1-c1ccnc2c(C(=O)O)csc12` (stereo not shown) [compound 1427], under setting [3], the IC50 is 14.3 nM. Turning to `Cc1nc2cnc(N(C)C3CCN(CC4CC4)CC3)c(C#N)c2c(=O)n1CCOc1ccc(Cl)cc1-c1ccnc2c(C(=O)O)csc12` [compound 1370], under setting [3], the IC50 was 19.9 nM.

As for `Cc1nc2cnc(C3CCN(CC(F)(F)F)CC3)c(C#N)c2c(=O)n1CC#Cc1ccc(Cl)cc1-c1ccnc2c(C(=O)O)csc12` [compound 1116], the IC50 is less than 50 nM under setting [1] and 17.1 nM under setting [2]. For the compound `Cc1cc(-c2cc(Cl)ccc2OCCn2c(C)nc3cc(C(F)(F)F)c(-c4ccccc4)nc3c2=O)c2scc(C(=O)O)c2n1` [compound 467], the IC50 under setting [1] was less than 50 nM. `Cc1cc(-c2cc(Cl)ccc2OCCn2c(C)nc3cnc(-c4cc(F)cnc4C)c(C#N)c3c2=O)c2scc(C(=O)O)c2n1` [compound 1051]: the IC50 was less than 50 nM under setting [1] and 5.02 nM under setting [2]. For the compound `Cc1nc2cnc(N3CCN(CCCOC(F)F)CC3)c(C#N)c2c(=O)n1CC#Cc1ccc(Cl)cc1-c1ccnc2c(C(=O)O)csc12` [compound 1509], under setting [3], the IC50 was 37.5 nM.

For `Cc1nc2cnc(N(C)C3CCN(C(C)(C)C(C)(F)F)CC3)c(C#N)c2c(=O)n1CC#Cc1ccc(Cl)cc1-c1ccnc2c(C(=O)O)csc12` [compound 1506], the IC50 under setting [3] was 27.4 nM. Take `Cc1cc(-c2cc(Cl)ccc2OCCn2c(C)nc3c(=O)n(C)c(-c4ccccc4)c(C#N)c3c2=O)c2scc(C(=O)O)c2n1` [compound 1193]: the IC50 under setting [1] was less than 50 nM. Turning to `CCN(c1ncc2nc(C)n(CC#Cc3ccc(Cl)cc3-c3ccnc4c(C(=O)O)csc34)c(=O)c2c1C#N)C1CCN(C2CC(F)(F)C2)CC1` [compound 1184], the IC50 is less than 50 nM under setting [1] and 9.32 nM under setting [2]. The corresponding values for `Cc1cc(-c2cc(Cl)ccc2OCCn2c(C)nc3cc(C(F)(F)F)cc(C#N)c3c2=O)c2sc(C)c(C(=O)O)c2n1` [compound 668] are less than 50 nM and 7.76 nM. The corresponding values for `Cc1nc2cc(Cl)c(Cl)c(C#N)c2c(=O)n1C/C=C/c1ccc(Cl)cc1-c1ccnc2c(C(=O)O)csc12` [compound 256] are 50 to 1000 nM and 104 nM.

`Cc1nc2cnc(N(C)C3CCN(C4CC4)CC3)c(C#N)c2c(=O)n1CCOc1ccc(Cl)cc1-c1ccnc2c(C(=O)O)csc12` [compound 1319]: the IC50 under setting [3] is 13.6 nM. In the case of `Cc1cc(C#N)c2c(=O)n(CCOc3ccc(Cl)cc3-c3ccnc4c(C(=O)O)csc34)c(C)nc2c1` [compound 573], the IC50 is 50 to 1000 nM under setting [1] and 54.7 nM under setting [2].

Take `Cc1nc2cnc(N3CCN(C(C)C(F)(F)F)CC3)c(C#N)c2c(=O)n1CCOc1ccc(Cl)cc1-c1ccnc2c(C(=O)O)csc12` (stereo not shown) [compound 1315]: the IC50 under setting [3] was 13.1 nM. With `Cc1nc2cnc(N3CCC4(CC3)CN(CC(F)F)C4)c(C#N)c2c(=O)n1CC#Cc1ccc(Cl)cc1-c1ccnc2c(C(=O)O)csc12` [compound 1136], the IC50 reads like this: under setting [1], less than 50 nM; under setting [2], 17 nM. `Cc1cc(-c2cc(Cl)ccc2OCCn2c(C)nc3cc(C(F)F)c(-c4cc(F)cnc4C)c(C#N)c3c2=O)c2scc(C(=O)O)c2n1` [compound 438]: the IC50 under setting [1] was less than 50 nM and the IC50 under setting [2] was 9.16 nM.

On to `Cc1nc2c(OC(F)F)ccc(C#N)c2c(=O)n1CCOc1ccc(Cl)cc1-c1ccnc2c(C(=O)O)csc12` [compound 359], for which the IC50 was less than 50 nM under setting [1] and 48.9 nM under setting [2].

For the compound `Cc1c(CC2CCOCC2)nc(C#N)c2nc(C)n(CC#Cc3ccc(Cl)cc3-c3ccnc4c(C(=O)O)csc34)c(=O)c12` [compound 1965], the IC50 under setting [3] is 86.4 nM. In the case of `Cc1nc2cc(C(F)(F)F)cc(C#N)c2c(=O)n1CCOc1ccc(Cl)cc1-c1ccnc2c(C(C)(C)O)csc12` [compound 352], the IC50 under setting [1] was greater than 1000 nM and the IC50 under setting [2] was 1270 nM. With `Cc1nc2cc(C(F)(F)F)cc(C#N)c2c(=O)n1CCOc1ccncc1-c1ccnc2c(C(=O)O)csc12` [compound 285], the IC50 was 50 to 1000 nM under setting [1] and 72.5 nM under setting [2].

As for `Cc1cc(-c2cc(Cl)ccc2OCCn2c(C)nc3cc(C(F)(F)F)c(CN4CCNCC4)c(C#N)c3c2=O)c2scc(C(=O)O)c2n1` [compound 649], the IC50 is, setting by setting: under setting [1], less than 50 nM; under setting [2], 15 nM. Consider `C#Cc1c(-c2cc(Cl)ccc2OCCn2c(C(F)F)nc3cccc(C#N)c3c2=O)ccnc1C(=O)O` [compound 163], for which the IC50 reads like this: under setting [1], 50 to 1000 nM; under setting [2], 95.5 nM.

Turning to `COC(=O)c1csc2c(-c3cc(Cl)ccc3C#CCn3c(C)nc4cnc(N(C)C5CCN(CC(F)(F)F)CC5)c(C#N)c4c3=O)ccnc12` [compound 1195], the IC50 by setting is: under setting [1], less than 50 nM; under setting [3], 13.1 nM. For the compound `Cc1nc2cnc(N3CCC(N4CC(F)(F)C4)CC3)c(C#N)c2c(=O)n1CC#Cc1ccc(Cl)cc1-c1ccnc2c(C(=O)O)csc12` [compound 1467], the IC50 under setting [3] was 11 nM.

Source of the values: patent US11286268B1, “EIF4E-inhibiting compounds and methods” (EFFECTOR THERAPEUTICS, INC., priority 2019, dated 2022).
